From the NIST ThermoML archive (doi:10.1021/je0502344)

Legend:
[1] = 101.33 kPa, Liquid
[2] = xn = mol fraction of the nth substance listed; conditions: 101.33 kPa, Liquid

CCCCCCCCCC=O [decanal]
[1]
Conditions	mass density [kg/m3]	viscosity [mPa·s]
298.15 K	801.24	1.56
308.15 K	789.05	1.412
318.15 K	776.18	1.281

CCCCCCCCCC=O [decanal] + CCO
[2]
Conditions	mass density, 298.15 K [kg/m3]	mass density, 308.15 K [kg/m3]	mass density, 318.15 K [kg/m3]	viscosity, 298.15 K [mPa·s]	viscosity, 308.15 K [mPa·s]	viscosity, 318.15 K [mPa·s]
x1 = 0.1011	785.98	778.7	764.59	1.128	0.939	0.808
x1 = 0.2102	787.14	779.48	765.47	1.174	0.987	0.854
x1 = 0.3013	788.25	780.24	766.32	1.213	1.028	0.895
x1 = 0.412	789.78	781.28	767.48	1.262	1.081	0.947
x1 = 0.5105	791.31	782.32	768.64	1.308	1.131	0.997
x1 = 0.5836	792.55	783.15	769.58	1.343	1.169	1.035
x1 = 0.6889	794.48	784.47	771.05	1.395	1.226	1.092
x1 = 0.8008	796.73	785.99	772.76	1.452	1.29	1.157
x1 = 0.9145	799.23	787.68	774.65	1.513	1.358	1.226
x1 = 1	801.24	789.05	776.18	1.56	1.412	1.281

CCO [ethanol]
[1]
Conditions	mass density [kg/m3]	viscosity [mPa·s]
298.15 K	785.08	1.088
308.15 K	778.09	0.897
318.15 K	763.91	0.767

CCO [ethanol] + CCCCCC=O
[2], x2 = 0
Conditions	mass density [kg/m3]	viscosity [mPa·s]
298.15 K	785.08	1.088
308.15 K	778.09	0.897
318.15 K	763.91	0.767

CCO [ethanol] + CCCCCCCC=O
[2], x2 = 0
Conditions	mass density [kg/m3]	viscosity [mPa·s]
298.15 K	785.08	1.088
308.15 K	778.09	0.897
318.15 K	763.91	0.767

CCO [ethanol] + CCCCCCCCC=O
[2], x2 = 0
Conditions	mass density [kg/m3]	viscosity [mPa·s]
298.15 K	785.08	1.088
308.15 K	778.09	0.897
318.15 K	763.91	0.767

CCO [ethanol] + CCCCCCCCCC=O
[2], x2 = 0
Conditions	mass density [kg/m3]	viscosity [mPa·s]
298.15 K	785.08	1.088
308.15 K	778.09	0.897
318.15 K	763.91	0.767

CCCCCC=O [hexanal]
[1]
Conditions	mass density [kg/m3]	viscosity [mPa·s]
298.15 K	833.12	0.805
308.15 K	818.94	0.716
318.15 K	804.31	0.639

CCCCCC=O [hexanal] + CCO
[2]
Conditions	mass density, 298.15 K [kg/m3]	mass density, 308.15 K [kg/m3]	mass density, 318.15 K [kg/m3]	viscosity, 298.15 K [mPa·s]	viscosity, 308.15 K [mPa·s]	viscosity, 318.15 K [mPa·s]
x1 = 0.1094	788	780.57	766.36	1.053	0.875	0.752
x1 = 0.2049	791.01	783.13	768.9	1.023	0.857	0.739
x1 = 0.3226	795.33	786.81	772.53	0.987	0.834	0.723
x1 = 0.4037	798.69	789.67	775.36	0.963	0.819	0.712
x1 = 0.5027	803.22	793.52	779.17	0.935	0.801	0.7
x1 = 0.6207	809.24	798.64	784.23	0.902	0.78	0.685
x1 = 0.7108	814.29	802.93	788.47	0.878	0.764	0.674
x1 = 0.81	820.3	808.04	793.53	0.852	0.747	0.662
x1 = 0.9226	827.69	814.32	799.74	0.824	0.729	0.648
x1 = 1	833.12	818.94	804.31	0.805	0.716	0.639

CCCCCCCCC=O [nonanal]
[1]
Conditions	mass density [kg/m3]	viscosity [mPa·s]
298.15 K	831.04	1.392
308.15 K	818.01	1.251
318.15 K	804.72	1.127

CCCCCCCCC=O [nonanal] + CCO
[2]
Conditions	mass density, 298.15 K [kg/m3]	mass density, 308.15 K [kg/m3]	mass density, 318.15 K [kg/m3]	viscosity, 298.15 K [mPa·s]	viscosity, 308.15 K [mPa·s]	viscosity, 318.15 K [mPa·s]
x1 = 0.1034	787.7	780.37	766.24	1.116	0.928	0.798
x1 = 0.2039	790.72	782.99	768.92	1.144	0.96	0.83
x1 = 0.293	793.79	785.65	771.64	1.169	0.989	0.859
x1 = 0.3939	797.7	789.05	775.11	1.199	1.023	0.893
x1 = 0.5045	802.52	793.24	779.4	1.232	1.061	0.931
x1 = 0.5943	806.85	797	783.24	1.26	1.093	0.964
x1 = 0.7116	813.07	802.4	788.76	1.297	1.137	1.009
x1 = 0.7855	817.31	806.08	792.53	1.32	1.165	1.038
x1 = 0.898	824.25	812.11	798.69	1.357	1.209	1.084
x1 = 1	831.04	818.01	804.72	1.392	1.251	1.127

CCCCCCCC=O [octanal]
[1]
Conditions	mass density [kg/m3]	viscosity [mPa·s]
298.15 K	821.07	1.2
308.15 K	807.34	1.074
318.15 K	793.85	0.965

CCCCCCCC=O [octanal] + CCO
[2]
Conditions	mass density, 298.15 K [kg/m3]	mass density, 308.15 K [kg/m3]	mass density, 318.15 K [kg/m3]	viscosity, 298.15 K [mPa·s]	viscosity, 308.15 K [mPa·s]	viscosity, 318.15 K [mPa·s]
x1 = 0.1077	787.23	779.83	765.7	1.1	0.915	0.786
x1 = 0.2019	789.45	781.64	767.54	1.11	0.93	0.803
x1 = 0.3178	792.62	784.21	770.18	1.122	0.95	0.825
x1 = 0.3977	795.08	786.22	772.23	1.131	0.964	0.84
x1 = 0.4952	798.4	788.92	774.99	1.142	0.981	0.859
x1 = 0.6115	802.81	792.5	778.66	1.155	1.001	0.883
x1 = 0.7003	806.51	795.5	781.74	1.165	1.018	0.901
x1 = 0.798	810.9	799.07	785.39	1.176	1.036	0.921
x1 = 0.9089	816.3	803.46	789.88	1.189	1.057	0.945
x1 = 1	821.07	807.34	793.85	1.2	1.074	0.965
